Several values for one entry are separate records, joined by “and”; a condition that tells them apart may be missing. Equal entries are not always repeated.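 Cells were grown in 96-well plates and exposed to each compound for 48 hours at five concentrations; endpoints were interpolated linearly between bracketing concentrations, or set to the highest concentration if not reached. GI50 marks 50% less growth. The concentration for full growth arrest is given as TGI.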
Assays:
Assay in all cases: NCI-60 cell line screen, 48 h
[1] = test system: HL-60(TB) leukemia
[2] = test system: OVCAR-5 ovarian
[3] = test system: SK-MEL-5 melanoma
[4] = test system: SN12C renal
[5] = test system: NCI-H460 lung
[6] = test system: SK-MEL-2 melanoma
[7] = test system: HCC-2998 colon
[8] = test system: HCT-15 colon
[9] = test system: OVCAR-4 ovarian
[10] = test system: DU-145 prostate

| Compound | TGI [1] | TGI [2] | TGI [3] | TGI [4] | TGI [5] | TGI [6] | TGI [7] | TGI [8] | TGI [9] | GI50 [1] | GI50 [2] | GI50 [3] | GI50 [4] | GI50 [5] | GI50 [10] | TGI [10] | GI50 [6] | GI50 [8] | GI50 [9] | GI50 [7] |
| --- | --- | --- | --- | --- | --- | --- | --- | --- | --- | --- | --- | --- | --- | --- | --- | --- | --- | --- | --- | --- |
| Cc1cc2c(cc1C)[n+](=O)c(C(=O)C/C(=N/NC(=O)c1ccccc1O)C(=O)Nc1ccccc1C(C)C)c(C)n2[O-] | 37.9 µM | > 100 µM | > 100 µM | > 100 µM | > 100 µM | > 100 µM | > 100 µM | > 100 µM | > 100 µM | – | – | – | – | – | – | – | – | – | – | – |
| CC(C)(C)OC(=O)n1cc(CNC(=S)Nc2ccccc2)c2ccccc21 | 55.3 µM | 37.6 µM | 16.6 µM | 28.4 µM | 22 µM | > 100 µM | – | 22.9 µM | > 100 µM | 11.6 µM | 16.3 µM | 4.51 µM | 15.1 µM | 9.36 µM | 7 µM | 35.4 µM | 36.3 µM | 10.9 µM | 49.4 µM | – |
| CCOC(=O)C1=C(C)Nc2ccccc2S1 | – | > 100 µM | > 100 µM | > 100 µM | > 100 µM | > 100 µM | > 100 µM | > 100 µM | > 100 µM | – | – | – | – | – | – | – | – | – | – | – |
| CNC(=O)c1ccccc1CC1(O)c2ccccc2Oc2ccccc21 | – | > 100 µM | 13 µM | > 100 µM | 82.6 µM | 34.5 µM | 91.3 µM | > 100 µM | > 100 µM | – | 29.1 µM | 3.2 µM | 26 µM | 25 µM | 22 µM | 56.5 µM | 14.2 µM | 12.7 µM | 27.8 µM | 29 µM |
| O=C(/C=C/c1ccc(Cl)cc1)c1ccc(Cl)cc1Cl | 27.9 µM | 18 µM | 13.1 µM | 20.9 µM | 24.8 µM | 18.9 µM | – | 15.3 µM | 14 µM | 7.25 µM | 9.15 µM | 4.89 µM | 9.96 µM | 10.4 µM | 7.72 µM | 15.7 µM | 9.55 µM | 6.4 µM | 6.14 µM | – |
| N#Cc1c(-c2cccs2)c2c(=S)[nH]c(=S)[nH]c2[nH]c1=S | 47.9 µM | > 100 µM | 33.9 µM | > 100 µM | 72.9 µM | 80.9 µM | – | > 100 µM | > 100 µM | 15.4 µM | > 100 µM | 17.2 µM | 43 µM | 39.1 µM | 24 µM | 78.7 µM | 32.9 µM | 37 µM | 53 µM | – |
| FC(F)(F)c1nc(-c2ccccc2Cl)[nH]c1C(F)(F)F | 1.22 µM | – | 0.833 µM | 3.14 µM | 4.17 µM | 1.4 µM | – | 3.52 µM | 22.1 µM | – | – | – | – | – | – | – | – | – | – | – |
| C#CCNC(=O)NC(CCCNC(=O)OCc1ccccc1)C(=O)OCc1ccccc1 (centres undefined) | 59.3 µM | > 100 µM | > 100 µM | > 100 µM | > 100 µM | > 100 µM | > 100 µM | > 100 µM | > 100 µM | – | – | – | – | – | – | – | – | – | – | – |
| COc1ccc(-c2cc(-c3cc(Cl)ccc3Cl)nc3[nH]c(-c4cc(F)c(Cl)cc4Cl)cc(=O)c23)cc1 | – | 89.2 µM | 33.4 µM | 76.8 µM | > 100 µM | > 100 µM | 32.3 µM | 56.1 µM | > 100 µM | – | 22.2 µM | 7.63 µM | 24.5 µM | 87.3 µM | 31.3 µM | > 100 µM | 64.8 µM | 17.1 µM | > 100 µM | 15.1 µM |
| COc1ccc2cc1Oc1ccc(cc1)C[C@H]1c3cc(c(OC)cc3CCN1C)Oc1c(OC)c(OC)cc3c1[C@H](C2)N(C)CC3 | 16.1 µM and 23.8 µM and > 100 µM | – | 11.8 µM and 13.8 µM and > 100 µM | – | 14.5 µM | – | 8.65 µM | 16.5 µM and 18.5 µM | 11.1 µM and 28.5 µM | – | – | 3.94 µM | – | – | – | – | – | 5.99 µM | 12.4 µM | – |
| CCOc1ccc(NC(=O)CC2Sc3ccccc3NC2=O)cc1 (centres undefined) | > 100 µM | > 100 µM | > 100 µM | > 100 µM | > 100 µM | – | > 100 µM | > 100 µM | 39.8 µM | – | – | – | – | – | – | – | – | – | – | – |
| CC(CO)(CO)N=Cc1cc(I)cc(I)c1O | 29.6 µM | 53.7 µM | 28.5 µM | 31.4 µM | 55 µM | 27.4 µM | – | 34.8 µM | 37.2 µM | – | – | – | – | – | – | 29.8 µM | – | – | – | – |
| CC(=O)[CH-]C(=O)c1ccccc1.CC(=O)[CH-]C(=O)c1ccccc1.CCCCCCCCCCCCCCCCCC(=O)[O-].CCCCCCCCCCCCCCCCCC(=O)[O-].[Ti+4] | 43.9 µM | > 100 µM | 48.2 µM | 73.5 µM | 95.7 µM | 52.4 µM | – | 69.6 µM | 31.8 µM | 19.3 µM | 36.7 µM | 21 µM | 29.9 µM | 30.7 µM | – | – | 21.7 µM | 32.9 µM | 16.6 µM | – |
| COC(=O)C(c1[nH]nc2ccccc12)C(C(=O)OC)c1[nH]nc2ccccc12 (centres undefined) | 50.5 µM | > 100 µM | – | > 100 µM | > 100 µM | – | > 100 µM | > 100 µM | 53.4 µM | – | – | – | – | – | – | – | – | – | – | – |
| N/C(CC(=O)Nc1cc(C(F)(F)F)ccc1Cl)=N\O | > 100 µM | > 100 µM | > 100 µM | > 100 µM | > 100 µM | > 100 µM | – | > 100 µM | > 100 µM | – | – | – | – | – | – | > 100 µM | – | – | – | – |
| O=C(C#Cc1c[nH]c(=O)[nH]c1=O)c1ccccc1Cl | 48.1 µM | 34 µM | 28.8 µM | 27.5 µM | 67.7 µM | 29.9 µM | 30.8 µM | 28.7 µM | 31.1 µM | – | – | – | – | – | – | – | – | – | – | – |
| CCOC(=O)C1(CC)CCCCC(=O)N1 (centres undefined) | > 100 µM | – | – | > 100 µM | > 100 µM | – | > 100 µM | > 100 µM | > 100 µM | – | – | – | – | – | – | – | – | – | – | – |
| O=C1/C(=C/c2ccc(F)cc2)CCOc2ccc([N+](=O)[O-])cc21 | – | 4.62 µM | 3.6 µM | 21 µM | 34.9 µM | 11.6 µM | 4.75 µM | > 100 µM | 36.5 µM | – | 2 µM | 1.84 µM | 6.97 µM | 17.4 µM | 5.68 µM | 18.1 µM | 3.17 µM | 41.6 µM | 16.7 µM | 2.04 µM |
